Consider 1 molecule from ChEMBL document CHEMBL1128167, “(3R, 4S)-3-Benzyl-4-bromomethyloxetan-2-one, a fast acting alternate substrate inhibitor of -chymotrypsin” (Bioorg Med Chem Lett, 1995).

Test [1] deals with T1, Chymotrypsinogen B (Homo sapiens, UniProt P17538). As to the kind of experiment: (§1) Inhibition of Alpha-chymotrypsin was determined by competitive substrate assay method.
Test [2] concerns the target T1, Chymotrypsinogen B. The test is described as §1. The source holds these as a separate data set.

T1 sequence (P17538 34-164 limits assumed, other chains not shown): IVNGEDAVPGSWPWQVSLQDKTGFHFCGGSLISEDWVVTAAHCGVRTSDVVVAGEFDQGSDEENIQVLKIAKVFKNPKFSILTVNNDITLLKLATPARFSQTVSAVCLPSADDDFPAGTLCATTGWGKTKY
T1 sequence (P17538 167-263 limits assumed, other chains not shown): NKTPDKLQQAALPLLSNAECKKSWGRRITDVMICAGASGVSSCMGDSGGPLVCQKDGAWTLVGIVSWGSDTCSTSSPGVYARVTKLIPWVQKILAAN

On to `O=C1O[C@H](CBr)[C@H]1Cc1ccccc1`, for which, on Chymotrypsinogen B [1], the inhibition constant (Ki) (in general, a measure of affinity in units of concentration, obtained from inhibition or displacement) came out at 2550 nM. Also, the Ka on Chymotrypsinogen B [2] amounted to 2.94 min⁻¹.
